Data as given in ChEMBL document CHEMBL1201862, “PubChem BioAssay data set” (2004).
The source made the active and inactive calls.

What was measured:
[1] = biological target: T1, RNA-binding protein pos-1 (Caenorhabditis elegans, UniProt G5EF15); test: disruptors of C. elegans POS-1 RNA interaction – biochemical, fluorescence polarization, dose response (AID 1964);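 also: purified POS-1 fused to maltose binding protein made in E. coli; potency of compounds blocking POS-1 binding to fluorescent RNA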
T1 sequence (G5EF15 whole entry): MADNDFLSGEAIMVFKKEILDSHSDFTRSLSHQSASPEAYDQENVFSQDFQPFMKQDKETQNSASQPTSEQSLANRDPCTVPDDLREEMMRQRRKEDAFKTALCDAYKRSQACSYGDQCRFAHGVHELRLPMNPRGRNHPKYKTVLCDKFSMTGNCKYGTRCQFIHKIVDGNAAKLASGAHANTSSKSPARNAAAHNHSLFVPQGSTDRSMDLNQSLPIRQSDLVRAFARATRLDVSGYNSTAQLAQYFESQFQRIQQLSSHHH

[2] = biological target: T2, Zinc finger protein mex-5 (Caenorhabditis elegans, UniProt Q9XUB2); test: potency of MEX-5 RNA-binding blockers – biochemical, C. elegans, fluorescence polarization, dose response (AID 1960)
T2 sequence (Q9XUB2 whole entry): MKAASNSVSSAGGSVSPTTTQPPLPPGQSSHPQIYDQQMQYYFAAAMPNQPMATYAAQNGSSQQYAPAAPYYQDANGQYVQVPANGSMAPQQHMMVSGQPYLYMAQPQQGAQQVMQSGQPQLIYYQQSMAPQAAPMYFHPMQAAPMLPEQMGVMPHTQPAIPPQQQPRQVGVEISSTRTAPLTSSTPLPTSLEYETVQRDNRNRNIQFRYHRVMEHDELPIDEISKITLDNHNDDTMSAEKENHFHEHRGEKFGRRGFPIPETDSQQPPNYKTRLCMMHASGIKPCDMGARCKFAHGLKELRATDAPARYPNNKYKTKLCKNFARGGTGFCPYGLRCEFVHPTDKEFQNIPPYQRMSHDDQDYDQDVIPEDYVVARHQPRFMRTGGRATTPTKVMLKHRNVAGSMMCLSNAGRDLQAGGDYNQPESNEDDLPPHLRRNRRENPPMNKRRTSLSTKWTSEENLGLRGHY

[3] = biological target: Keap1/Nrf2 (Homo sapiens, UniProt Q14145); test: disruptors of Keap1 binding to Nrf2 peptide – biochemical, fluorescence polarization, cherry-picked samples, dose response (AID 588683)
[4] = biological target: Genome polyprotein (dengue virus type 2, UniProt P29990); test: flavivirus cap methylation enzyme inhibition – biochemical, confirmation dose response, primary screen (AID 588689); format: functional
[5] = tested on: HEK293; test: cells; settings: Homo sapiens
[6] = tested on: HEK293; test: cells; settings: Homo sapiens; remark: listed apart in the source
[7] = decrease of insulin promoter-GFP reporter – imaging, high-content screening, mouse beta cells (AID 1628); format: functional; settings: MIN6
[8] = tested on: Streptococcus sp. 'group A'; test: Streptococcus pyogenes SK(-)GAS viability under kanamycin – luminescence, BacTiterGlo, confirmation, counter-screen for streptokinase expression inhibitor project, dose response (AID 1900); format: functional, organism-based
[9] = MIN6 cell viability loss – mouse insulinoma, cytotoxicity control, dose response (AID 2122); format: functional;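 also: confirmatory high-throughput counterscreen run to flag cytotoxic compounds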
[10] = biological target: T3, Streptokinase A (Streptococcus pyogenes serotype M1, UniProt P10520); test: viability-normalized secreted streptokinase activity reduction – plasminogen activation absorbance, OD405, dose response (AID 1914); format: functional, Streptococcus pyogenes M1 GAS;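 also: secreted streptokinase activity via plasminogen activation per viability signal from cell pellet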
T3 sequence (P10520 whole entry): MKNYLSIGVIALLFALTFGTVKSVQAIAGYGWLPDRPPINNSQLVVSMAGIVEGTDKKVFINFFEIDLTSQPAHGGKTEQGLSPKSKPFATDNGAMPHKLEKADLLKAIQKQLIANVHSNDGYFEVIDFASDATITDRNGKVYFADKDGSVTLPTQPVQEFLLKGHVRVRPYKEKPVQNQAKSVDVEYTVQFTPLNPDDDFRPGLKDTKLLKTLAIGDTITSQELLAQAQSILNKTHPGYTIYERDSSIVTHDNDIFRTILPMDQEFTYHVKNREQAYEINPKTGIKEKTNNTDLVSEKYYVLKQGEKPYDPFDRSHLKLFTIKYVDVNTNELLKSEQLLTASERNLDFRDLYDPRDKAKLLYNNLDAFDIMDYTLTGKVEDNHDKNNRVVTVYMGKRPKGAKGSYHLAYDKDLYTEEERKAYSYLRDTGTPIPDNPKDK

[11] = biological target: NS3 (Hepatitis C virus, UniProt A3EZJ3); test: PubChem AID 2173; set-up: species or system Hepacivirus hominis
[12] = Trypanosoma cruzi growth suppression in host cells – NIH3T3 host cells, beta-gal luminescence, confirmation (AID 2044); format: functional, cell-based;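 also: intracellular parasites grown in NIH/3T3 mouse fibroblasts as host cells; luminescent beta-galactosidase reporter signal from transgenic T. cruzi replicating inside host cells; inhibitors lower the luminescence signal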
[13] = viability of PTEN-deleted HCT116 cells – cell-based, HCT116 PTEN knockout, dose response (AID 1047); format: functional;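 also: HCT116 colon tumor cells with PTEN knocked out; cells exposed to compound for 60 hours before readout; potency for loss of cell viability measured by luminescence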
[14] = NIH3T3 cell viability loss – ATP luminescence, mouse fibroblasts, counter-screen, dose response (AID 2010); format: functional, cell-based;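 also: cells exposed to compound for about 90 hours before reading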
[15] = viability of HCT116 lacking mutant beta-catenin – cell-based, human colon tumor, dose response (AID 1045); format: functional;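 also: HCT116 colon tumor cells with beta catenin knocked out; cells exposed to compound for 60 hours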
[16] = tested on: Streptococcus; test: GAS UMAA2166 growth inhibition – luminescence, BacTiterGlo, counter-screen for streptokinase expression inhibitor project, dose response (AID 1915); format: functional, organism-based;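 also: potency for reduction of bacterial viability or growth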
[17] = tested on: Vero; test: viability of Vero cells under compound – cytotoxicity control for flavivirus capping enzyme inhibitors (AID 588742); format: functional; settings: Chlorocebus sabaeus
[18] = biological target: T4, Exodeoxyribonuclease V (Escherichia coli (strain K12), UniProt P04993+P07648+P08394); test: RecBCD inhibition via phage-restricted bacterial growth – absorbance, V66 E. coli, mutant T4 phage, counter-screen for AddAB inhibitor project, dose response (AID 492957); format: functional, cell-based, Escherichia coli str. K-12 substr. MG1655
T4 sequence (P04993 whole entry): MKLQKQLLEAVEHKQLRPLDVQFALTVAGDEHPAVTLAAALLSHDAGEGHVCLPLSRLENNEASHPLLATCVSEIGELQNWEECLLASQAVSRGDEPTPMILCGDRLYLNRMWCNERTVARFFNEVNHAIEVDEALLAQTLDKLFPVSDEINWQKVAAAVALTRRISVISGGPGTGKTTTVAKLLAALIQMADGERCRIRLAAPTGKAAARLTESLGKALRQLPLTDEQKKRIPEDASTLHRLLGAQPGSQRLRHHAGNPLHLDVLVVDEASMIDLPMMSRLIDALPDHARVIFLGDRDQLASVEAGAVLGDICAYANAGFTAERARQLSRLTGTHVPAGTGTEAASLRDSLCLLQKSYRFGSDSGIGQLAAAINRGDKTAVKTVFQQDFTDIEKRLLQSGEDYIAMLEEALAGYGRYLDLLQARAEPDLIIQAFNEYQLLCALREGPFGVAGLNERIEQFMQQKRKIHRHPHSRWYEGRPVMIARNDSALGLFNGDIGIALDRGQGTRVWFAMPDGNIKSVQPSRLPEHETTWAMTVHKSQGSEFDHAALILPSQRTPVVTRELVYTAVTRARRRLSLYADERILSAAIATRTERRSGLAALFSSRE
T4 sequence (P07648 whole entry): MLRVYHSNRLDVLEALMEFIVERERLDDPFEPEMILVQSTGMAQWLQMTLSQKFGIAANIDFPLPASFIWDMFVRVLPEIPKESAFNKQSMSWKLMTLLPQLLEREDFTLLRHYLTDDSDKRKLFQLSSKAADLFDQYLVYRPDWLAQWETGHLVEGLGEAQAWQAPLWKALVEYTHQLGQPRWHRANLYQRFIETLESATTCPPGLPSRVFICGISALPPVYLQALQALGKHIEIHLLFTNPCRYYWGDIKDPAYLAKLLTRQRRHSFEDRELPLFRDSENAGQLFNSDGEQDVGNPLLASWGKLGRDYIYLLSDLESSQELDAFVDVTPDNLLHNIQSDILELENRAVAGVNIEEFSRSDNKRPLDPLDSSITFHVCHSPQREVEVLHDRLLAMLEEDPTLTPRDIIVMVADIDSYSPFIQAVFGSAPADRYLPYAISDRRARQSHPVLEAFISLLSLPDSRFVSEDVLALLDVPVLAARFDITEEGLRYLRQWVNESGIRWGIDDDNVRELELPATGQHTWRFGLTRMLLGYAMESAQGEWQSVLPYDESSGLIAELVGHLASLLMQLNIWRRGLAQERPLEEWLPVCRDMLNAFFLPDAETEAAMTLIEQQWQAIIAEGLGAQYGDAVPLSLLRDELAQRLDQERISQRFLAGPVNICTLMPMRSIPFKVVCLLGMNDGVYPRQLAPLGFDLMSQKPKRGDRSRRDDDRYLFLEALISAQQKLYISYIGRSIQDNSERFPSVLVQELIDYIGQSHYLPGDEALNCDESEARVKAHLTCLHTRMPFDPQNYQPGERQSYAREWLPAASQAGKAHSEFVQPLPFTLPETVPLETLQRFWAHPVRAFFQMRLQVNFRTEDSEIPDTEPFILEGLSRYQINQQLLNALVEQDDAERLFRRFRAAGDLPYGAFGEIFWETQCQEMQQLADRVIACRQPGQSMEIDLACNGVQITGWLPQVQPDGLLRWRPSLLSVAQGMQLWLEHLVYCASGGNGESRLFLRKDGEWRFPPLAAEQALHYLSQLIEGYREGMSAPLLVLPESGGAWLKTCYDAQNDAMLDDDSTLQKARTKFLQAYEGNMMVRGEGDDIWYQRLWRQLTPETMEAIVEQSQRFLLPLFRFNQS
T4 sequence (P08394 whole entry): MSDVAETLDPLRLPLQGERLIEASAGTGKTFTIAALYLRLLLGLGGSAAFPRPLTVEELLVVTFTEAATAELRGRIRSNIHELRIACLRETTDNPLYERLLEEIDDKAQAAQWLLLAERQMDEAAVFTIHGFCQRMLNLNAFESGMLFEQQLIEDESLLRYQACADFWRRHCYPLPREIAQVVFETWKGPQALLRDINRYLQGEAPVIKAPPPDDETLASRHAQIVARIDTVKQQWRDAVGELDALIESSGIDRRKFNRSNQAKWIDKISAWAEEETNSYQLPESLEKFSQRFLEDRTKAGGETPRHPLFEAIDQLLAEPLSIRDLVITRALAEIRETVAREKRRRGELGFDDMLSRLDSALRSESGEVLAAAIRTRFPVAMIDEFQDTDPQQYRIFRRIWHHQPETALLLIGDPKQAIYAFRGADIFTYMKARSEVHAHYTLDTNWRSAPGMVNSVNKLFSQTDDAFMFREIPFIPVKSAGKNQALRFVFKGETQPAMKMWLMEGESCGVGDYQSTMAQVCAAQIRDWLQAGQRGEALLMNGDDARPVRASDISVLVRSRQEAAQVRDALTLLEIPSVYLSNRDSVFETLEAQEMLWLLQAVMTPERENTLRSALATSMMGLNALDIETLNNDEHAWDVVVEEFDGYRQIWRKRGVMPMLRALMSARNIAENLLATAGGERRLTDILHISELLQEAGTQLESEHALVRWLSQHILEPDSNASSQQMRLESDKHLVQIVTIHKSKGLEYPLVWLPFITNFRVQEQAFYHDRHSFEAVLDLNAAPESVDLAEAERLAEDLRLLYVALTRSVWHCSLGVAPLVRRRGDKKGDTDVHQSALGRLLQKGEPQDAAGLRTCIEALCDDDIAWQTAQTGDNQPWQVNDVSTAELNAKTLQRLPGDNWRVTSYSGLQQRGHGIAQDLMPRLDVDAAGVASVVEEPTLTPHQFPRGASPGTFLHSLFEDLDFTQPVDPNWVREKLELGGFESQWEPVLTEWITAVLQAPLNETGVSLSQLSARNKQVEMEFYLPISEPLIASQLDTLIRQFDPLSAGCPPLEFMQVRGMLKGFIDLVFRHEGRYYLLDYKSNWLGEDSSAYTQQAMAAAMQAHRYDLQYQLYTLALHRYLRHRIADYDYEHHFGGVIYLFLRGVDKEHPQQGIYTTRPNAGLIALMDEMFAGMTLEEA

[19] = Counterscreen for AddAB inhibitors: absorbance-based bacterial cell-based high throughput dose response assay for inhibitors of bacterial viability. [Related pubchem assays (depositor defined):AID435030, AID449728, AID449731, AID488942, AID488955, AID488956]; format: functional

Sequence of Keap1/Nrf2 (Q16236 whole entry): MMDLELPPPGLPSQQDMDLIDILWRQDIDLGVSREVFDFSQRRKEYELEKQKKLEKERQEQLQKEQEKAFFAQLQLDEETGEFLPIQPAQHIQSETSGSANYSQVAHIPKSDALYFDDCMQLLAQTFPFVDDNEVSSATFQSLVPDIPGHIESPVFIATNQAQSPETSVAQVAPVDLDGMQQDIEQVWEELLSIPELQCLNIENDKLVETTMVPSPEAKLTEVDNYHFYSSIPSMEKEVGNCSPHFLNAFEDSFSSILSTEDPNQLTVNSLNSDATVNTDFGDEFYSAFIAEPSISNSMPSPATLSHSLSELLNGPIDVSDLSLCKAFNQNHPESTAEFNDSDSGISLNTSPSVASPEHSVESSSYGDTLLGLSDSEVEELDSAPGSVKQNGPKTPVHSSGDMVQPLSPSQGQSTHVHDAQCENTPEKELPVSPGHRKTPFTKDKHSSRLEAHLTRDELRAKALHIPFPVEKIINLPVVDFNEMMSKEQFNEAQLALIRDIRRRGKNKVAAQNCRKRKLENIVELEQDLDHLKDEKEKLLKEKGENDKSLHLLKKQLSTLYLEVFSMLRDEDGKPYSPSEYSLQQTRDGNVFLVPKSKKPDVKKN
Sequence of Keap1/Nrf2 (Q14145 whole entry): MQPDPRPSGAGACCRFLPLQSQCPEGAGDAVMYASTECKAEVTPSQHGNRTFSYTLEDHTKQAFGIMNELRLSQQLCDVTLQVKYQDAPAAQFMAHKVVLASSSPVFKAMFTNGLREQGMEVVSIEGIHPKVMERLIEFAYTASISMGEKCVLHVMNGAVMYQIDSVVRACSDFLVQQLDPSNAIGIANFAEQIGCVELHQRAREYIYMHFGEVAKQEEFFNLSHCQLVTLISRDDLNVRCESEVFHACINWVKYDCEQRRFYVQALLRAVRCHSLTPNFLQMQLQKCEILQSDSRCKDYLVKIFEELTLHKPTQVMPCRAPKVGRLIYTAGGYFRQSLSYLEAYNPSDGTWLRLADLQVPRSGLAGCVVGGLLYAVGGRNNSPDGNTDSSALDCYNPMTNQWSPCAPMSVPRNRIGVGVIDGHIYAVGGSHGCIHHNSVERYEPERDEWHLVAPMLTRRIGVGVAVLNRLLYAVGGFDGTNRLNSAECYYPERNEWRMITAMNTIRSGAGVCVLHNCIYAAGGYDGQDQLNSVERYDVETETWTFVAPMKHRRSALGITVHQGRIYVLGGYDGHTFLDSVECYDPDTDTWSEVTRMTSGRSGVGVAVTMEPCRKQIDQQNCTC
Sequence of Genome polyprotein (P29990 2492-3391 limits assumed): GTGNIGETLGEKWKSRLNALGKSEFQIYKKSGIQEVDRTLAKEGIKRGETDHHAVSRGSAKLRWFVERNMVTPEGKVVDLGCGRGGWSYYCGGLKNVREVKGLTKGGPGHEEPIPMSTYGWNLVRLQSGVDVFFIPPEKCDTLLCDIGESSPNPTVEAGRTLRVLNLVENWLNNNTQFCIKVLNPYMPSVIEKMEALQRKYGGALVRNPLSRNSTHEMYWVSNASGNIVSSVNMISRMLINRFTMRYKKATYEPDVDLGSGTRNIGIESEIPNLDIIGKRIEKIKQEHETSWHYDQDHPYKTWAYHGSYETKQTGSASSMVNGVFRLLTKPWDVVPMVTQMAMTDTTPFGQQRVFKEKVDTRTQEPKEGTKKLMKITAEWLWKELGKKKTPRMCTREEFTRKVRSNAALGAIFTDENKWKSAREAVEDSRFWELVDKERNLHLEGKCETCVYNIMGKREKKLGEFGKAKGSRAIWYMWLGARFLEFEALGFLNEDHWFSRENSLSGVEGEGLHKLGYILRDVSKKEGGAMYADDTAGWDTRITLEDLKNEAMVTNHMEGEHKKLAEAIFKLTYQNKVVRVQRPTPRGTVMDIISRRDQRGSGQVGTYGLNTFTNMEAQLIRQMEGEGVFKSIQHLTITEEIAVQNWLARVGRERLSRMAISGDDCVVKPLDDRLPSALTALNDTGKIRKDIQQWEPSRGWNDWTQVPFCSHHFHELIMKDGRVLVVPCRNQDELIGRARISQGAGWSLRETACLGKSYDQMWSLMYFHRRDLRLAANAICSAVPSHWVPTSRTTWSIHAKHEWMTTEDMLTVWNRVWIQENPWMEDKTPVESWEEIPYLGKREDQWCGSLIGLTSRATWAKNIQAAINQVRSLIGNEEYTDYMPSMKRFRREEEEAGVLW
Sequence of NS3 (A3EZJ3 whole entry): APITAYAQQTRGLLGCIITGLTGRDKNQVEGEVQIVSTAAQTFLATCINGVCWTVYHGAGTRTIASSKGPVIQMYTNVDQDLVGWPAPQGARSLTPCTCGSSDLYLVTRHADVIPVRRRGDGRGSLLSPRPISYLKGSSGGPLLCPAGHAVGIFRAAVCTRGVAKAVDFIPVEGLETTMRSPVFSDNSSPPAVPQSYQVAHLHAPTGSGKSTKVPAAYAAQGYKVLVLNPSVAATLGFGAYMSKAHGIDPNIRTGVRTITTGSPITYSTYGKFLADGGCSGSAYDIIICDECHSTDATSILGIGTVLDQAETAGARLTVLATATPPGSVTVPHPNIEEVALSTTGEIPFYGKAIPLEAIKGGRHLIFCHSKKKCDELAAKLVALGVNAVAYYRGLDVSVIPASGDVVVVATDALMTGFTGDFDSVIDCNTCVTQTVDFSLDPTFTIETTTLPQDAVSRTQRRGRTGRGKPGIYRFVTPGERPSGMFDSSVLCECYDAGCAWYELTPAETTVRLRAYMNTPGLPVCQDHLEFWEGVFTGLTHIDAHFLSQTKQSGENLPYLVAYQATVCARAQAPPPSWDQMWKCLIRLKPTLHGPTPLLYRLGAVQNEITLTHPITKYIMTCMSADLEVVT

Cc1c(N)cc(N)cc1C(=O)O
EC50 [1]: > 300 µM (not active)
EC50 [2]: 27.7 µM (active)
AC50 [3]: > 52 µM (inactive)
IC50 [4]: > 100 µM (active)

Cc1cccc(C2CC(c3ccccc3)Nc3ncnn32)c1 (stereo unspecified)
EC50 [5]: > 59.6 µM (inactive)
EC50 [6]: > 59.6 µM (inactive)

O=C(/C=C/c1ccccc1Cl)c1ccccc(=O)c1O
IC50 [7]: 3.72 µM (active)
EC50 [8]: 1.61 µM (active)
IC50 [9]: 4.43 µM (active)
EC50 [10]: > 150 µM (not active)
IC50 [11]: 4.49 µM (active)
EC50 [12]: 1.22 µM (active)
EC50 [13]: 1.29 µM (active)
EC50 [14]: 6.37 µM (active)
EC50 [15]: 1.07 µM (active)
EC50 [16]: 9.56 µM (active)
CC50 [17]: 9.47 µM (active)

CC(=O)OCC(=O)[C@@]1(O)CC[C@H]2[C@@H]3CCC4=CC(=O)C=C[C@]4(C)[C@@]3(Cl)[C@@H](Cl)C[C@@]21C [DICHLORISONE ACETATE]
IC50 [7]: < 0.25 µM (active)
IC50 [9]: > 16 µM (inactive)

CC(Sc1ccsc1[N+](=O)[O-])C(=O)NCc1ccco1 (stereo unspecified)
IC50 [18]: > 119 µM (inactive)
IC50 [19]: > 119 µM (inactive)
